{"source": "patent US7678386B2", "about": "“Liposomes coated with selected antibodies that bind to aminophospholipids” (Board of Regents the University of Texas, priority 2002, dated 2010)", "key": {"[1]": {"test_system": "Factor Xa generation on IL-1α-stimulated bEnd.3 cells", "test": "Factor Xa formation induced by coaguligand (chromogenic assay)", "format": "cell-based, mouse", "settings": "10 μg per ml", "experimental": "The ability of Annexin V to affect Factor Xa formation induced by coaguligand was determined by a chromogenic assay. IL-1α-stimulated bEnd.3 cells were incubated with anti-VCAM-•tTF and permeabilized by saponin. Annexin V was added at concentrations ranging from 0.1 to 10 μg/ml and cells were incubated for 30 min. before addition of diluted Proplex T. The amount of Factor Xa generated in the presence or absence of Annexin V was determined. Each treatment was performed in duplicate and repeated at least twice."}, "[2]": {"test": "Anti-PS ELISA on PS-coated plates", "format": "binding", "experimental": "The anti-PS ELISA used in the present studies is conducted as follows. Unless particular differences are specified, this is the format of the ELISA used throughout the studies of the present application.\nThe ELISA is exemplified using the antigen PS (P-6641 25 mg 10 mg/ml (solvent is Chloroform:MeOH 95:5) in 2.5 ml bottle). Other phospholipids can be used using the same protocol. The PS (or other phospholipids) stock solution should be aliquoted and stored in an airtight container at −30° C. The preferred 96 well plates are Dynatech U bottom Immulon 1 (from Dynatech Labs. Cat# 011-010-3550).\nThe standard blocking buffer used herein is 10% bovine serum dissolved in PBS. Other blocking solutions are suitable, but any detergents should be excluded from block and wash solutions. The primary antibody is the test sample or admixture. The preferred secondary antibody is goat, anti-mouse IgG-HRP. The developing solutions are: 10 ml of 0.2 M Na2PO4, 10 ml of 0.1 M citric acid, one 10 mg tablet of OPD, and 10 μl of hydrogen peroxide. The stop solution is 0.18 M H2SO4.\nThe protocol entails coating 96-well plate with PS as follows: dilute the PS stock solution in n-hexane to 10 μg/ml and mix well. Add 50 μl to each well and allow this to evaporate for one hour. Add 200 μl of 10% serum (or other blocking buffer) to each well, cover and maintain at room temperature for 2 hours or overnight at 4° C. Wash the plate three times with PBS. Add the primary antibody (dilute in blocking buffer) and incubate for 2 hours at 37° C. Wash three times with PBS. Add 100 μl/well of secondary antibody (typically goat. anti-mouse IgG-HRP or other appropriate secondary antibody) and incubate for 1 hour at 37° C. Wash the plate three times with PBS. Develop the ELISA by adding 100 μl of developing solution to each of the wells, develop for 10 minutes, then add 100 μl of stop solution to each plate and read the O.D. at 490 nm."}, "[3]": {"test_system": "vascular endothelium of tumors and normal organs", "test": "Detection of anionic phospholipids in tumor bearing mice in vivo (9D2, annexin V)", "parameters": "species or system mouse", "experimental": "For localization studies, 2×10^7 L540 human Hodgkin's lymphoma cells or 1×10^7 cells of other tumor types were injected subcutaneously into the right flank of SCID mice (Charles River. Wilmington, Mass.). Tumors were allowed to reach a volume of 0.4-0.7 cm^3. A minimum of three animals per group was used. Studies were replicated at least three times.\nFemale nu/nu or SCID mice were purchased from Charles River. MDA-MB-231 human mammary carcinoma cells were implanted into the mammary fat pad according to a published protocol (Price. 1996). Briefly, mice were anesthetized and a 5-mm incision was made in the skin over the lateral thorax. The mammary pad was exposed to ensure the correct site for injection of 1×10^7 MDA-MB-231 cells re-suspended in 0.1 ml of saline.\nTo detect externally-positioned phospholipids, methods were performed essentially as previously described (Example V; Ran et al., 1998). Tumor-bearing SCID mice were injected intravenously with either 50 μg of 9D2 or biotinylated 9D2 antibody or 100 μg of biotinylated annexin V. Sixty min later mice were sacrificed and their blood circulation was exsanguinated and perfused with heparinized saline as previously described (Burrows et al., 1992). All major organs and tumor were harvested and snap-frozen for preparation of cryosections.\nSections were blocked with PBS containing 10% serum. To prevent loss of phospholipids during slide processing, detergents and organic solvents were omitted from blocking and washing buffers. Rat IgM was detected using goat anti rat IgM (μspecific)-HRP conjugate followed by development with carbazole or DAB (Fries et al., 1993). Biotinylated reagents were detected by streptavidin conjugated to HRP.\nTumor sections derived from mice injected with saline or rat IgM of irrelevant specificity served as negative controls. Additional controls consisted of incubating the slides in 1% Triton solution or in acetone for 10 min. These treatments extract phospholipids. No signal was detected under these conditions. The number of positive vessels per high power field was determined at magnification of ×100. At least 10 fields per section were examined and the average percentage of positive vessels was calculated. Staining of the sections by this method for the presence of 9D2 or annexin V detects cells having externalized anionic phospholipids that were accessible for binding by the reagents in vivo.\nStructures with localized 9D2 antibody or annexin V were identified as blood vessels by morphological appearance on DAB-stained sections and by co-incident staining with the pan-endothelial cell marker, MECA 32 on serial sections of frozen tissues. Quantification on DAB-stained sections was done by counting vessels stained by MECA 32, 9D2 or annexin V in serial sections of a tumor. Six slides of each tumor type derived from 6 mice injected with 9D2 antibody, control rat IgM or annexin V were examined. At least 10 random fields per section (0.317 mm^2/field) were scored in blinded fashion by two independent observers. The mean numbers and standard errors of vessels stained by 9D2, annexin V or MECA 32 were calculated. The mean number of 9D2 or annexin V-positive vessels determined in each tumor type group was compared to the mean number of MECA 32-positive vessels in the same tumor group. The percentage of 9D2 or annexin V-positive vessels was calculated."}}, "note": "Where two headings read alike, the source gives them in different places."}
{"substance": "Annexin V: high affinity PS binding ligand; natural ligand of anionic phospholipids and PE", "values": [{"measurement": "inhibition of factor Xa production", "setting": "[1]", "value": 58, "unit": "%"}, {"measurement": "EC50", "setting": "[2]; MW used for conversion: IgM 900 kDa, IgG 150 kDa, Annexin V 36 kDa, read-out: EC50", "value": 2.77, "unit": "nM"}, {"measurement": "EC50", "setting": "[2]; dilutions of tissue culture supernatants", "value": 0.100, "unit": "µg/mL"}, {"measurement": "Affinity vs. 3SB (-fold increased)", "setting": "[2]; from EC50 in nM", "value": "0.18 -fold"}, {"measurement": "Binding vs. 3SB (-fold increased)", "setting": "[2]; from EC50 in μg/ml", "value": "4.68 -fold"}, {"measurement": "PS-positive vessels of MECA 32-stained vessels (mean ±SE)", "setting": "[3]; B16 tumor", "value": "21.3 ± 6.6", "unit": "%"}, {"measurement": "PS-positive vessels of MECA 32-stained vessels (mean ±SE)", "setting": "[3]; L540cy tumor", "value": "16.7 ± 3.9", "unit": "%"}, {"measurement": "PS-positive vessels of MECA 32-stained vessels (mean ±SE)", "setting": "[3]; MDA-MB-231 tumor", "value": "45.3 ± 5.6", "unit": "%"}, {"measurement": "PS-positive vessels of MECA 32-stained vessels (mean ±SE)", "setting": "[3]; MDA-MB-231 tumor, listed as annexin V", "value": 40, "unit": "%"}, {"measurement": "PS-positive vessels of MECA 32-stained vessels (mean ±SE)", "setting": "[3]; NCI-H358 tumor", "value": 15, "unit": "%"}, {"measurement": "vascular localization in normal organs", "setting": "[3]; nine of ten normal organs examined (kidney tubules non-specific)", "value": "No vascular localization"}]}
